Assay results as given in PubChem BioAssay (NCI).
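Grown in 96-well plates, cells were treated for 48 hours with each compound at five concentrations. Insufficient inhibition: endpoint recorded as highest concentration tested. TGI denotes the concentration required for complete inhibition of growth.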

Experiments:
Assay in all cases: NCI tumour cell line growth inhibition, 48 h
A549 NSCLC = tested on: A549 NSCLC
ACHN renal = tested on: ACHN renal
CAKI-1 renal = tested on: CAKI-1 renal
COLO 205 colon = tested on: COLO 205 colon
HCT-116 colon = tested on: HCT-116 colon
HL-60(TB) leukemia = tested on: HL-60(TB) leukemia
HOP-62 NSCLC = tested on: HOP-62 NSCLC
K-562 leukemia = tested on: K-562 leukemia
NCI-H226 lung = tested on: NCI-H226 lung
NCI-H23 lung = tested on: NCI-H23 lung
OVCAR-4 ovarian = tested on: OVCAR-4 ovarian
OVCAR-5 ovarian = tested on: OVCAR-5 ovarian
OVCAR-8 ovarian = tested on: OVCAR-8 ovarian
RPMI-8226 leukemia = tested on: RPMI-8226 leukemia
SNB-19 CNS = tested on: SNB-19 CNS
SNB-75 CNS = tested on: SNB-75 CNS
SR leukemia = tested on: SR leukemia
U251 CNS = tested on: U251 CNS
UACC-62 melanoma = tested on: UACC-62 melanoma

| Structure (SMILES) | TGI (A549 NSCLC) | TGI (ACHN renal) | TGI (CAKI-1 renal) | TGI (COLO 205 colon) | TGI (HCT-116 colon) | TGI (HL-60(TB) leukemia) | TGI (HOP-62 NSCLC) | TGI (K-562 leukemia) | TGI (NCI-H226 lung) | TGI (NCI-H23 lung) | TGI (OVCAR-4 ovarian) | TGI (OVCAR-5 ovarian) | TGI (OVCAR-8 ovarian) | TGI (RPMI-8226 leukemia) | TGI (SNB-19 CNS) | TGI (SNB-75 CNS) | TGI (SR leukemia) | TGI (U251 CNS) | TGI (UACC-62 melanoma) |
| --- | --- | --- | --- | --- | --- | --- | --- | --- | --- | --- | --- | --- | --- | --- | --- | --- | --- | --- | --- |
| CC(=O)Oc1c(OC(C)C)c(C)c(O[Si](C(C)C)(C(C)C)C(C)C)c2[nH]c3ccccc3c12 | > 100 µM | > 100 µM | > 100 µM | > 100 µM | > 100 µM | 8.43 µM | > 100 µM | > 100 µM | > 100 µM | > 100 µM | > 100 µM | > 100 µM | > 100 µM | > 100 µM | > 100 µM | > 100 µM | 99.3 µM | > 100 µM | > 100 µM |
| CCOC(=O)CCC(NC(=O)c1ccc(N=Cc2nc3ccccc3nc2-c2ccccc2)cc1)C(=O)OCC (configuration not stated) | > 100 µM | > 100 µM | > 100 µM | > 100 µM | > 100 µM | > 100 µM | > 100 µM | > 100 µM | > 100 µM | > 100 µM | > 100 µM | > 100 µM | > 100 µM | > 100 µM | > 100 µM | > 100 µM | > 100 µM | > 100 µM | > 100 µM |
| CN=C(N)N=Nc1c(O)[nH]c2ccccc12 | > 100 µM | > 100 µM | > 100 µM | > 100 µM | > 100 µM | > 100 µM | > 100 µM | > 100 µM | > 100 µM | > 100 µM | > 100 µM | > 100 µM | > 100 µM | > 100 µM | > 100 µM | > 100 µM | > 100 µM | > 100 µM | > 100 µM |
